Test results taken from patent US9096591B2, “Tetracyclic compounds” (Medivation Technologies, Inc., priority 2007, dated 2015).

Key:
Conditions in all cases: percent inhibition of specific binding
[1] = target: T1, human recombinant dopamine D2L receptor (Homo sapiens, UniProt P14416); assay: Dopamine D2L radioligand binding ([3H]Spiperone)
T1 construct: expressed in transfected cells; host or cells: CHO cells
Experimental: Non-specific binding was estimated in the presence of 10 μM Haloperidol. Receptor proteins were filtered and washed, the filters were then counted to determine [^3H]Spiperone specifically bound. […] Biochemical assay results are presented as the percent inhibition of specific binding in Table 6.

[2] = target: T2, human recombinant adrenergic α2A receptor (Homo sapiens, UniProt P08913); assay: Adrenergic α2A radioligand binding ([3H]MK-912); set-up: Inhibition of ligand binding, Adren. alpha2A: concentration or dose not given beside the values
T2 construct: expressed in transfected cells; host or cells: insect Sf9 cells
T2 sequence (P08913 1-465): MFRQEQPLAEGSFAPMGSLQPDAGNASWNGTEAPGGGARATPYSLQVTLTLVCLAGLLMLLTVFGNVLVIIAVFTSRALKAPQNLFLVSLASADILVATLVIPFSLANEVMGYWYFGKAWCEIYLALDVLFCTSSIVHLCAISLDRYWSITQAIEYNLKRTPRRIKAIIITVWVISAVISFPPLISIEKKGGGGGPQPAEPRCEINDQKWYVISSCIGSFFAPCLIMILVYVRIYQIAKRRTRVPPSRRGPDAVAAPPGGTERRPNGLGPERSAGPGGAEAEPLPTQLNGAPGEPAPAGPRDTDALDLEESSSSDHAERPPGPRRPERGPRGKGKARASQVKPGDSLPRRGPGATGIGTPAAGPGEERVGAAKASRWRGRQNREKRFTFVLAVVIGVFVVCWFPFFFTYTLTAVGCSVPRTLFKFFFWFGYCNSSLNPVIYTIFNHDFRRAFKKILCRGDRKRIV
Procedure, shortened: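 Membranes from Sf9 cells expressing the receptor were incubated with 1 nM [3H]MK-912 for 60 minutes at 25° C in 50 mM Tris-HCl pH 7.4, 12.5 mM MgCl2, 2 mM EDTA. 10 μM WB-4101 defined non-specific binding. Values are percent inhibition of specific bound radioactivity after filtration.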

[3] = target: T3, human recombinant serotonin (5-Hydroxytryptamine) 5-HT2A receptor (Homo sapiens, UniProt P28223); assay: Serotonin 5-HT2A radioligand binding ([3H]Ketanserin)
T3 construct: expressed in transfected cells; host or cells: CHO-K1 cells
T3 sequence (P28223 whole entry): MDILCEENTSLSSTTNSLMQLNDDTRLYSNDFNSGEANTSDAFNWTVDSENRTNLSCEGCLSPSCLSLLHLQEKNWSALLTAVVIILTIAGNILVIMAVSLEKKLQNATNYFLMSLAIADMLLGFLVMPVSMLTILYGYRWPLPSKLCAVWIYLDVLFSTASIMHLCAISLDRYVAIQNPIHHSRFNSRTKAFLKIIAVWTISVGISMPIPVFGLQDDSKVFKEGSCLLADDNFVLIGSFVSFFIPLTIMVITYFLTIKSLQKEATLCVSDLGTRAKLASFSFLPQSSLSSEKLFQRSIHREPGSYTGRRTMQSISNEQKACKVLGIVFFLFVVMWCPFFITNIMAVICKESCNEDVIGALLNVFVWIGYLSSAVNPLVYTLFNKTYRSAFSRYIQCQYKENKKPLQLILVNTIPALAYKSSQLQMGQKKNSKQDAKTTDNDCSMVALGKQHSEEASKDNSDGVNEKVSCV
Experimental: (§1) Compounds of the invention were incubated with 0.5 nM [^3H]Ketanserin for 60 minutes at 25° C. Non-specific binding was estimated in the presence of 1 μM Mianserin. Receptor proteins were filtered and washed, the filters were then counted to determine [^3H]Ketanserin specifically bound. […] Biochemical assay results are presented as the percent inhibition of specific binding in Table 6.

[4] = target: T4, human recombinant serotonin (5-Hydroxytryptamine) 5-HT2C receptor (Homo sapiens, UniProt P28335); assay: Serotonin 5-HT2C radioligand binding ([3H]Mesulergine); set-up: Inhibition of ligand binding, Ser. 5-HT2C: concentration or dose not given beside the values
T4 construct: expressed in transfected cells; host or cells: CHO-K1 cells
T4 sequence (P28335 33-458): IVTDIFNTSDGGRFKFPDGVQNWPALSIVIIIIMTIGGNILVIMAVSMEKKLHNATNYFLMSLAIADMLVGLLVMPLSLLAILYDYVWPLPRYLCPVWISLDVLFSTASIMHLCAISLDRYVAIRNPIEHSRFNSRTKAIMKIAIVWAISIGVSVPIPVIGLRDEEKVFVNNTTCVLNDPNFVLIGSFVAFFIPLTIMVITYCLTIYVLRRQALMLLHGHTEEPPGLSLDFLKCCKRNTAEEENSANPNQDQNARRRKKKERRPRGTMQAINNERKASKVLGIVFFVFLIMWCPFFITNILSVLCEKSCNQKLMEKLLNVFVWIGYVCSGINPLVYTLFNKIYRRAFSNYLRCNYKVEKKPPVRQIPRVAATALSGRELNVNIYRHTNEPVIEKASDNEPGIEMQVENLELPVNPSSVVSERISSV
Experimental: as §1, with “1” for “0.5”, “[^3H]Mesulergine” for “[^3H]Ketanserin”

[5] = target: T5, human recombinant serotonin (5-Hydroxytryptamine) 5-HT6 receptor (Homo sapiens, UniProt P50406); assay: Serotonin 5-HT6 radioligand binding ([3H]LSD); set-up: Inhibition of ligand binding, Ser. 5-HT6: concentration or dose not given beside the values
T5 construct: expressed in transfected cells; host or cells: human HeLa cells
T5 sequence (P50406 whole entry): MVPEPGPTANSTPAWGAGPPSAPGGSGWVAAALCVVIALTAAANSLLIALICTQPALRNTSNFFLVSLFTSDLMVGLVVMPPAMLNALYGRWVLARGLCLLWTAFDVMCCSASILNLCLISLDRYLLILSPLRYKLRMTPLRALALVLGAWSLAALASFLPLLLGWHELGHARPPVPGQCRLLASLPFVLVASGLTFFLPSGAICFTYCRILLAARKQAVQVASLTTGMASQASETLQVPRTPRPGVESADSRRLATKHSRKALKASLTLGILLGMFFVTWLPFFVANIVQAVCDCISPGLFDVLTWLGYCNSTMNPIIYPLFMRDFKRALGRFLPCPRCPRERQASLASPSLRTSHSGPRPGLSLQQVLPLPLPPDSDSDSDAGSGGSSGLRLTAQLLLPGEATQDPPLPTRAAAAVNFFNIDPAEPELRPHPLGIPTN
Description: Receptor proteins were filtered and washed, the filters were then counted to determine [3H]LSD specifically bound. […] Biochemical assay results are presented as the percent inhibition of specific binding in Table 6.

T1 sequence (P14416 whole entry): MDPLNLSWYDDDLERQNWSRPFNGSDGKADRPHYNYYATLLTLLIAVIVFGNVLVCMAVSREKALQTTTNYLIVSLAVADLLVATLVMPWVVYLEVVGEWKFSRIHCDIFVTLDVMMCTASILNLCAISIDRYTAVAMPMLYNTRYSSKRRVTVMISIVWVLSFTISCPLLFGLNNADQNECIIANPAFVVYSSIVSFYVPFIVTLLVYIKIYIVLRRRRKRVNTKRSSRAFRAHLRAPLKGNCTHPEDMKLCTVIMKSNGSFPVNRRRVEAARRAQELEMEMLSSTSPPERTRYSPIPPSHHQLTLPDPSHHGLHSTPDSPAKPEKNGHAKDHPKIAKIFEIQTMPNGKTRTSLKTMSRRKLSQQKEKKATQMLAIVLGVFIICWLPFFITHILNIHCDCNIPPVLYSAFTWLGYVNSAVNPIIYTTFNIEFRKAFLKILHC

SMILES | Inhibition of ligand binding, Dop. D2L [1] | Inhibition of ligand binding, Adren. alpha2A [2] | Inhibition of ligand binding, Ser. 5-HT2A [3] | Inhibition of ligand binding, Ser. 5-HT2C [4] | Inhibition of ligand binding, Ser. 5-HT6 [5]
Cc1ncc(CCn2c3c(c4cc(Cl)ccc42)CN(C)CC3)cn1 [Compound 361, 8-Chloro-2-methyl-5-[2-(2-methyl-pyrimidin-5-yl)-ethyl]-2,3,4,5-tetrahydro-1H-pyrido[4,3-b]indole] | 31% | 30% | 60% | 58% | 76%
CN1CCc2c(c3cc(Cl)ccc3n2CCc2cccnc2)C1 [Compound 55] | 29% | 86% | 86% | 87% | 94%
CN1CCc2c(c3cc(Cl)ccc3n2CCc2ccncc2)C1 [Compound 56] | 62% | 95% | 92% | 87% | 102%
Cc1ccc2c(c1)c1c(n2CCc2cncc(C(F)(F)F)c2)CCN(C)C1 [Compound 425, 5-(2-(5-(trifluoromethyl)pyridin-3-yl)ethyl)-2,3,4,5-tetrahydro-2,8-dimethyl-1H-pyrido[4,3-b]indole] | −1% | 49% | 84% | 72% | 64%
CCc1ccc2c(c1)c1c(n2CCc2ccc(C(F)(F)F)nc2)CCN(C)C1 [Compound 358, 8-Ethyl-2-methyl-5-[2-(6-trifluoromethyl-pyridin-3-yl)-ethyl]-2,3,4,5-tetrahydro-1H-pyrido[4,3-b]indole] | 38% | 96% | 95% | 78% | 65%
Cc1ccc(CCn2c3c(c4cc(C(C)C)ccc42)CN(C)CC3)cn1 [Compound 392, 8-Isopropyl-2-methyl-5-[2-(6-methyl-pyridin-3-yl)-ethyl]-2,3,4,5-tetrahydro-1H-pyrido[4,3-b]indole] | 24% | 89% | 53% | 82% | 61%
Cc1ccc2c(c1)c1c(n2CCc2ccc(C(C)C)nc2)CCN(C)C1 [Compound 360, 5-[2-(6-Isopropyl-pyridin-3-yl)-ethyl]-2,8-dimethyl-2,3,4,5-tetrahydro-1H-pyrido[4,3-b]indole] | 37% | 101% | 97% | 83% | 91%
CN1CCc2c(c3cc(Cl)c(F)cc3n2CCc2ccc(C(F)(F)F)nc2)C1 [Compound 343] | −7% | 90% | 89% | 69% | 57%
CN1CCc2c(c3cc(Cl)ccc3n2CCc2cncc(C(F)(F)F)c2)C1 [Compound 426, 8-chloro-5-(2-(5-(trifluoromethyl)pyridin-3-yl)ethyl)-2,3,4,5-tetrahydro-2-methyl-1H-pyrido[4,3-b]indole] | −7% | 42% | 85% | 80% | 65%
CCc1ccc(CCn2c3c(c4cc(C)ccc42)CN(C)CC3)cn1 [Compound 359, 5-[2-(6-Ethyl-pyridin-3-yl)-ethyl]-2,8-dimethyl-2,3,4,5-tetrahydro-1H-pyrido[4,3-b]indole] | 51% | 77% | 96% | 91% | 95%
Cc1ccc(CCn2c3c(c4cc(Cl)ccc42)CN(c2cccc(C(F)(F)F)c2)CC3)cn1 [Compound 403, 8-Chloro-5-[2-(6-methyl-pyridin-3-yl)-ethyl]-2-(3-trifluoromethyl-phenyl)-2,3,4,5-tetrahydro-1H-pyrido[4,3-b]indole] | 2% | 30% | 32% | 35% | 0%
CC(Cn1c2c(c3ccccc31)CN(C)CC2)c1ccc(F)cc1 (stereo not shown) [Compound 455] | 88% | 93% | 99% | 97% | 99%
Cc1ccc(CCn2c3c(c4cc(CO)ccc42)CN(C)CC3)cn1 [Compound 263] | −4% | 34% | 24% | 31% | 31%
Cc1ccc2c(c1)c1c(n2CC(=O)N2Cc3ccccc3C2)CCN(C)C1 [Compound 397, 2-(1,2,3,4-tetrahydro-2,8-dimethylpyrido[4,3-b]indol-5-yl)-1-(isoindolin-2-yl)ethanone] | 5% | 16% | 50% | 44% | −9%
Cc1ccc2c(c1)c1c(n2CCc2cncnc2)CCN(C)C1 [Compound 387, 2,8-Dimethyl-5-(2-pyrimidin-5-yl-ethyl)-2,3,4,5-tetrahydro-1H-pyrido[4,3-b]indole] | 1% | 12% | 54% | 76% | 79%
CN1CCN(CCn2c3c(c4cc(Cl)ccc42)CN(C)CC3)CC1 [Compound 417, 8-chloro-2,3,4,5-tetrahydro-2-methyl-5-(2-(4-methylpiperazin-1-yl)ethyl)-1H-pyrido[4,3-b]indole] | −12% | 28% | 23% | 29% | 5%
CCc1ccc2c(c1)c1c(n2CCc2cnc(C)nc2)CCN(C)C1 [Compound 362, 8-Ethyl-2-methyl-5-[2-(2-methyl-pyrimidin-5-yl)-ethyl]-2,3,4,5-tetrahydro-1H-pyrido[4,3-b]indole] | 17% | 14% | 27% | 40% | 61%
